Measurements: the supplement of paper PMC10307832

Legend:
Test in all cases: relative viability (nuclei count vs DMSO), 5 days (fraction); higher = more cells survive
Sorafenib + Linsitinib = compound: CNC(=O)c1cc(Oc2ccc(NC(=O)Nc3ccc(Cl)c(C(F)(F)F)c3)cc2)ccn1 [Sorafenib] + C[C@]1(O)C[C@@H](c2nc(-c3ccc4ccc(-c5ccccc5)nc4c3)c3c(N)nccn32)C1 [Linsitinib] (partner 1 µM)
In short: (§1)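 Lung cancer cell lines were pin-tool dosed in 1536-well plates on the day after seeding, with either a lone drug or a fixed anchor-drug dose plus five library-drug doses (not always all listed) in √10 steps. Nuclei were counted on 4× images after 5 days. Relative viability is the ratio of treated-well to vehicle-well nuclei counts, with each value a median of duplicate plates.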

Sorafenib + Pemetrexed = compound: CNC(=O)c1cc(Oc2ccc(NC(=O)Nc3ccc(Cl)c(C(F)(F)F)c3)cc2)ccn1 [Sorafenib] + Nc1nc2[nH]cc(CCc3ccc(C(=O)N[C@@H](CCC(=O)O)C(=O)O)cc3)c2c(=O)[nH]1 [Pemetrexed] (partner 0.2 µM)
In short: as §1

Sorafenib + Crizotinib = compound: CNC(=O)c1cc(Oc2ccc(NC(=O)Nc3ccc(Cl)c(C(F)(F)F)c3)cc2)ccn1 [Sorafenib] + C[C@@H](Oc1cc(-c2cnn(C3CCNCC3)c2)cnc1N)c1c(Cl)ccc(F)c1Cl [Crizotinib] (partner 1 µM)
In short: as §1

Sorafenib + Palbociclib = compound: CNC(=O)c1cc(Oc2ccc(NC(=O)Nc3ccc(Cl)c(C(F)(F)F)c3)cc2)ccn1 [Sorafenib] + CC(=O)c1c(C)c2cnc(Nc3ccc(N4CCNCC4)cn3)nc2n(C2CCCC2)c1=O [Palbociclib] (partner 0.5 µM)
In short: as §1

Sorafenib + AZD7762 = compound: CNC(=O)c1cc(Oc2ccc(NC(=O)Nc3ccc(Cl)c(C(F)(F)F)c3)cc2)ccn1 [Sorafenib] + NC(=O)Nc1cc(-c2cccc(F)c2)sc1C(=O)N[C@H]1CCCNC1 [AZD7762] (partner 0.2 µM)
In short: as §1

Cell Line | relative viability (Sorafenib + Linsitinib; first compound 0.08 µM) | relative viability (Sorafenib + Linsitinib; first compound 0.253 µM) | relative viability (Sorafenib + Linsitinib; first compound 2.53 µM) | relative viability (Sorafenib + Linsitinib; first compound 8 µM) | relative viability (Sorafenib + Pemetrexed; first compound 0.08 µM) | relative viability (Sorafenib + Pemetrexed; first compound 0.253 µM) | relative viability (Sorafenib + Pemetrexed; first compound 2.53 µM) | relative viability (Sorafenib + Pemetrexed; first compound 8 µM) | relative viability (Sorafenib + Crizotinib; first compound 0.08 µM) | relative viability (Sorafenib + Crizotinib; first compound 0.253 µM) | relative viability (Sorafenib + Crizotinib; first compound 2.53 µM) | relative viability (Sorafenib + Crizotinib; first compound 8 µM) | relative viability (Sorafenib + Palbociclib; first compound 0.08 µM) | relative viability (Sorafenib + Palbociclib; first compound 0.253 µM) | relative viability (Sorafenib + Palbociclib; first compound 2.53 µM) | relative viability (Sorafenib + Palbociclib; first compound 8 µM) | relative viability (Sorafenib + AZD7762; first compound 0.08 µM) | relative viability (Sorafenib + AZD7762; first compound 0.253 µM) | relative viability (Sorafenib + AZD7762; first compound 2.53 µM) | relative viability (Sorafenib + AZD7762; first compound 8 µM)
NCI-H1944 | 1.21 | 1.24 | 1.3 | 1.09 | 0.697 | 0.557 | 0.735 | 0.438 | 1.12 | 1 | 1.08 | 0.912 | 0.339 | 0.346 | 0.371 | 0.306 | 0.584 | 0.453 | 0.679 | 0.31
NCI-H1975 | 1.01 | 1.02 | 1.08 | 0.491 | 0.3 | 0.285 | 0.294 | 0.209 | 0.988 | 1.03 | 0.985 | 0.466 | 0.712 | 0.49 | 0.656 | 0.311 | 0.807 | 0.633 | 0.803 | 0.809
NCI-H1993 | 0.774 | 0.675 |  | 0.819 | 0.566 | 0.597 | 0.528 | 0.43 | 0.988 | 1 | 1.08 | 0.851 | 0.662 | 0.656 | 0.751 | 0.565 | 0.793 | 0.763 | 0.913 | 0.397
NCI-H2085 | 0.962 | 0.924 | 1.07 | 0.728 | 1.02 | 0.98 | 1.15 | 0.762 | 0.938 | 1.01 | 0.965 | 0.717 | 0.442 | 0.491 | 0.51 | 0.497 | 1.04 | 0.874 | 1.03 | 0.604
